Test results: patent publication US9809574B2, “Isoindoline or isoquinoline compounds, a process for their preparation and pharmaceutical compositions containing them” (LES LABORATOIRES SERVIER, priority 2013, dated 2017)
Where a name gives a salt, the structure may show the parent alone.

Tests used:
[1] = molecular target: Bcl-2 protein (histag-Bcl-2, UniProtKB P10415) (Homo sapiens (Human), UniProt P10415); test: Inhibition of Bcl-2 by the fluorescence polarisation technique; type: binding; settings: fluorescence polarisation test; incubation for 2 hours; read-out: IC50 (nM) Bcl-2 FP
Excerpt: For partial inhibitors, the percentage fluorescence polarisation inhibition for a given concentration of the test compound is indicated.

[2] = tested on: RS4; 11 leukaemia cell line; test: In vitro cytotoxicity, Microculture Tetrazolium Assay (MTT); type: cell-based; settings: 11 cells exposed for 48 hours
Procedure: The cytotoxicity studies were carried out on the RS4; 11 leukaemia cell line and on H146 small Cell Lung Carcinoma cell line. The cells are distributed onto microplates and exposed to the test compounds for 48 hours. The cell viability is then quantified by a colorimetric assay, the Microculture Tetrazolium Assay (Cancer Res., 1987, 47, 939-942).

Chain of Bcl-2 protein (P10415 whole entry): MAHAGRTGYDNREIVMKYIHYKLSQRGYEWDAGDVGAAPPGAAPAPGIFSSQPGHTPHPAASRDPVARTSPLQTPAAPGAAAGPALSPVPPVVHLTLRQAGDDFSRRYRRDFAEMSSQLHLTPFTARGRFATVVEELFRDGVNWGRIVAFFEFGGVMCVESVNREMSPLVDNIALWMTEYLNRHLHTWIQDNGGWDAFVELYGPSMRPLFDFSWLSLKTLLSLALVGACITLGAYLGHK

Row | IC50 [1] | Structure (SMILES) | IC50 ([2]; Homo sapiens) | IC50 [2]
1 | 38 nM | CN(C(=O)c1cc(-c2cc3c(cc2C(=O)N2Cc4ccccc4C[C@H]2CN2CCOCC2)CN(C(=O)Cc2cccnc2)C3)n2c1CCCC2)c1ccc(O)cc1 [Example 42, N-(4-Hydroxyphenyl)-N-methyl-3-{6-[(3S)-3-(morpholin-4-ylmethyl)-1,2,3,4-tetrahydroisoquinoline-2-carbonyl]-2-[2-(pyridin-3-yl)acetyl]-2,3-dihydro-1H-isoindol-5-yl}-5,6,7,8-tetrahydroindolizine-1-carboxamide] | > 150 nM | –
2 | 6.5 nM | C[C@@H]1Cc2ccccc2CN1C(=O)c1cc2c(cc1-c1cc(C(=O)N(C)c3ccc(O)cc3)c3ccccn13)CN(C(=O)COc1ccccc1)C2 [Example 167, N-(4-Hydroxyphenyl)-N-methyl-3-{6-[(3R)-3-methyl-1,2,3,4-tetrahydroisoquinoline-2-carbonyl]-2-(2-phenoxyacetyl)-2,3-dihydro-1H-isoindol-5-yl}indolizine-1-carboxamide] | 20 nM | –
3 | 47 nM | CN(C(=O)c1cc(-c2cc3c(cc2C(=O)N2Cc4ccccc4C[C@H]2CN2CCOCC2)CN(S(=O)(=O)c2ccccc2)C3)n2c1CCCC2)c1ccc(O)cc1 [Example 19, 3-[2-(Benzenesulfonyl)-6-[(3S)-3-(morpholin-4-ylmethyl)-1,2,3,4-tetrahydroisoquinoline-2-carbonyl]-2,3-dihydro-1H-isoindol-5-yl]-N-(4-hydroxyphenyl)-N-methyl-5,6,7,8-tetrahydroindolizine-1-carboxamide hydrochloride] | 774 nM | –
4 | 70 nM | CN(C(=O)c1cc(-c2cc3c(cc2C(=O)N2Cc4ccccc4C[C@H]2CN2CCOCC2)CN(S(=O)(=O)c2cccnc2)C3)n2c1CCCC2)c1ccc(O)cc1 [Example 22, N-(4-Hydroxyphenyl)-N-methyl-3-{6-[(3S)-3-(morpholin-4-ylmethyl)-1,2,3,4-tetrahydroisoquinoline-2-carbonyl]-2-(pyridine-3-sulfonyl)-2,3-dihydro-1H-isoindol-5-yl}-5,6,7,8-tetrahydroindolizine-1-carboxamide hydrochloride] | > 150 nM | –
5 | 8.4 nM | Cc1c(C(=O)N(C)c2ccccc2)cc(-c2cc3c(cc2C(=O)N2Cc4ccccc4C[C@H]2C)CN(C(=O)Oc2ccc(C#N)cc2)CC3)n1C [Example 786, 4-Cyanophenyl 6-{1,5-dimethyl-4-[methyl(phenyl)carbamoyl]-1H-pyrrol-2-yl}-7-[(3R)-3-methyl-1,2,3,4-tetrahydroisoquinoline-2-carbonyl]-1,2,3,4-tetrahydroisoquinoline-2-carboxylate] | 24 nM | –
6 | 21 nM | C[C@@H]1Cc2ccccc2CN1C(=O)c1cc2c(cc1-c1cc(C(=O)N(C)c3ccc(O)cc3)c3n1CCCC3)CN(CCc1ccccc1)C2 [Example 72, N-(4-Hydroxyphenyl)-N-methyl-3-{6-[(3R)-3-methyl-1,2,3,4-tetrahydroisoquinoline-2-carbonyl]-2-(2-phenylethyl)-2,3-dihydro-1H-isoindol-5-yl}-5,6,7,8-tetrahydroindolizine-1-carboxamide] | 229 nM | –
7 | 20 nM | C[C@@H]1Cc2ccccc2CN1C(=O)c1cc2c(cc1-c1cc(C(=O)N(C)c3ccc(O)cc3)c3n1CCCC3)CN(CC(=O)Nc1ccccc1)C2 [Example 92, N-(4-Hydroxyphenyl)-N-methyl-3-{6-[(3R)-3-methyl-1,2,3,4-tetrahydroisoquinoline-2-carbonyl]-2-[(phenylcarbamoyl)methyl]-2,3-dihydro-1H-isoindol-5-yl}-5,6,7,8-tetrahydroindolizine-1-carboxamide] | 105 nM | –
8 | 28 nM | C[C@@H]1Cc2ccccc2CN1C(=O)c1cc2c(cc1-c1cc(C(=O)N(C)c3ccc(O)cc3)c3n1CCCC3)CN(CCC1CCCCC1)C2 [Example 29, 3-[2-(2-Cyclohexylethyl)-6-[(3R)-3-methyl-1,2,3,4-tetrahydroisoquinoline-2-carbonyl]-2,3-dihydro-1H-isoindol-5-yl]-N-(4-hydroxyphenyl)-N-methyl-5,6,7,8-tetrahydroindolizine-1-carboxamide] | > 150 nM | –
9 | 5.3 nM | Cc1c(C(=O)N(C)c2ccc(O)cc2)cc(-c2cc3c(cc2C(=O)N2Cc4ccccc4C[C@H]2C)CN(C(=O)Oc2ccc(F)cc2)C3)n1C [Example 106, 4-Fluorophenyl 5-{4-[(4-hydroxyphenyl)(methyl)carbamoyl]-1,5-dimethyl-1H-pyrrol-2-yl}-6-[(3R)-3-methyl-1,2,3,4-tetrahydroisoquinoline-2-carbonyl]-2,3-dihydro-1H-isoindole-2-carboxylate] | 38 nM | –
10 | 4.1 nM | Cc1c(C(=O)N(C)c2ccc(O)cc2)cc(-c2cc3c(cc2C(=O)N2Cc4ccccc4C[C@H]2CN(C)C)CN(C(=O)Cc2ccccc2)CC3)n1C [Example 777, 5-{7-[(3S)-3-[(Dimethylamino)methyl]-1,2,3,4-tetrahydroisoquinoline-2-carbonyl]-2-(2-phenylacetyl)-1,2,3,4-tetrahydroisoquinolin-6-yl}-N-(4-hydroxyphenyl)-N,1,2-trimethyl-1H-pyrrole-3-carboxamide] | 30 nM | –
11 | 33 nM | Cc1c(C(=O)N(C)c2ccc(O)cc2)cc(-c2cc3c(cc2C(=O)N2Cc4ccccc4C[C@H]2C)CN(C(=O)[C@@H](O)c2ccccc2)C3)n1C [Example 806, N-(4-Hydroxyphenyl)-5-(2-[(2S)-2-hydroxy-2-phenylacetyl]-6-{[(3R)-3-methyl-3,4-dihydroisoquinolin-2(1H)-yl]carbonyl}-2,3-dihydro-1H-isoindol-5-yl)-N,1,2-trimethyl-1H-pyrrole-3-carboxamide] | > 150 nM | –
12 | 16 nM | CNC(=O)N1Cc2cc(C(=O)N3Cc4ccccc4C[C@H]3C)c(-c3cc(C(=O)N(C)c4ccc(O)cc4)c4n3CCCC4)cc2C1 [Example 55, 5-{1-[(4-Hydroxyphenyl)(methyl)carbamoyl]-5,6,7,8-tetrahydroindolizin-3-yl}-N-methyl-6-[(3R)-3-methyl-1,2,3,4-tetrahydroisoquinoline-2-carbonyl]-2,3-dihydro-1H-isoindole-2-carboxamide] | 372 nM | –
13 | 7.4 nM | C[C@@H]1Cc2ccccc2CN1C(=O)c1cc2c(cc1-c1cc(C(=O)N(C)c3ccc(O)cc3)c3n1CCCC3)CN(C(=O)Cc1csc(-c3cnccn3)n1)C2 [Example 31, N-(4-Hydroxyphenyl)-N-methyl-3-{6-[(3R)-3-methyl-1,2,3,4-tetrahydroisoquinoline-2-carbonyl]-2-{2-[2-(pyrazin-2-yl)-1,3-thiazol-4-yl]acetyl}-2,3-dihydro-1H-isoindol-5-yl}-5,6,7,8-tetrahydroindolizine-1-carboxamide] | 113 nM | –

Row | Structure (SMILES) | IC50 [1] | IC50 ([2]; Homo sapiens) | IC50 [2]
14 | Cc1c(C(=O)N(C)c2ccc(O)cc2)cc(-c2cc3c(cc2C(=O)N2Cc4ccccc4C[C@H]2C)CN(C(=O)OC2CCC(N(C)C)CC2)CC3)n1C (stereo partly drawn) [Example 802, (1r,4r)-4-(Dimethylamino)cyclohexyl 6-{4-[(4-hydroxyphenyl)(methyl)carbamoyl]-1,5-dimethyl-1H-pyrrol-2-yl}-7-[(3R)-3-methyl-1,2,3,4-tetrahydroisoquinoline-2-carbonyl]-1,2,3,4-tetrahydroisoquinoline-2-carboxylate] | 4 nM | – | 99 nM
15 | Cc1c(C(=O)N(C)c2ccccc2)cc(-c2cc3c(cc2C(=O)N2Cc4ccccc4C[C@H]2C)CN(C(=O)Oc2ccc(N(C)CCN(C)C)cc2)CC3)n1C [Example 488, 4-{[2-(Dimethylamino)ethyl](methyl)amino}phenyl 6-{1,5-dimethyl-4-[methyl(phenyl)carbamoyl]-1H-pyrrol-2-yl}-7-[(3R)-3-methyl-1,2,3,4-tetrahydroisoquinoline-2-carbonyl]-1,2,3,4-tetrahydroisoquinoline-2-carboxylate] | 5.3 nM | 13 nM | –
16 | Cc1c(C(=O)N(C)c2ccc(O)cc2)cc(-c2cc3c(cc2C(=O)N2Cc4ccccc4C[C@H]2CN2CCN(C)CC2)CN(C(=O)Oc2ccccc2)CC3)n1C [Example 214, Phenyl 6-{4-[(4-hydroxyphenyl)(methyl)carbamoyl]-1,5-dimethyl-1H-pyrrol-2-yl}-7-[(3S)-3-[(4-methylpiperazin-1-yl)methyl]-1,2,3,4-tetrahydroisoquinoline-2-carbonyl]-1,2,3,4-tetrahydroisoquinoline-2-carboxylate] | 2.7 nM | 4.1 nM | –
17 | Cc1c(C(=O)N(C)c2ccc(O)cc2)cc(-c2cc3c(cc2C(=O)N2Cc4ccccc4C[C@H]2CN2CCOCC2)CN(C(=O)Oc2cccc(C(=O)O)c2)CC3)n1C [Example 709, 3-(6-{4-[(4-Hydroxyphenyl)(methyl)carbamoyl]-1,5-dimethyl-1H-pyrrol-2-yl}-7-[(3S)-3-(morpholin-4-ylmethyl)-1,2,3,4-tetrahydroisoquinoline-2-carbonyl]-1,2,3,4-tetrahydroisoquinoline-2-carbonyloxy)benzoic acid] | 4.8 nM | > 150 nM | –
18 | CN(C(=O)c1cc(-c2cc3c(cc2C(=O)N2Cc4ccccc4C[C@H]2CN2CCOCC2)CN(C(=O)Oc2ccc(Cl)cc2)CC3)n2c1CCCC2)c1ccc(O)cc1 [Example 122, 4-Chlorophenyl 6-{1-[(4-hydroxyphenyl)(methyl)carbamoyl]-5,6,7,8-tetrahydroindolizin-3-yl}-7-[(3S)-3-(morpholin-4-ylmethyl)-1,2,3,4-tetrahydroisoquinoline-2-carbonyl]-1,2,3,4-tetrahydroisoquinoline-2-carboxylate] | 2.6 nM | 5.4 nM | –
19 | Cc1c(C(=O)N(C)c2ccc(O)cc2)cc(-c2cc3c(cc2C(=O)N2Cc4ccccc4C[C@H]2CN2CCOCC2)CN(C(=O)Oc2ccc(Br)cc2)CC3)n1C [Example 784, 4-Bromophenyl 6-{4-[(4-hydroxyphenyl)(methyl)carbamoyl]-1,5-dimethyl-1H-pyrrol-2-yl}-7-[(3S)-3-(morpholin-4-ylmethyl)-1,2,3,4-tetrahydroisoquinoline-2-carbonyl]-1,2,3,4-tetrahydroisoquinoline-2-carboxylate] | 5.1 nM | 2.9 nM | –
